Laboratory results as given in paper PMC6196658, “Activity of Thioallyl Compounds From Garlic Against Giardia duodenalis Trophozoites and in Experimental Giardiasis” (Frontiers in Cellular and Infection Microbiology, 2018).
Values after ≈ are worked out from the molar mass of the structure shown. Values joined by “and” are separate entries in the source; they are usually repeats but may differ in a detail not shown here. Equal values may be shown once. Read-outs that look alike come from different tables or passages of the source.

Assays:
[1] = test system: cysteine protease activities in trophozoite lysates; test: Proteolytic activity assay (gelatin zymogram); format: biochemical, Giardia duodenalis
Procedure: Trophozoite lysates were prepared as mentioned above except that cell lysis was carried out by sonication in 1.5 mL microcentrifuge tubes under ice bath using eight 15-s pulses at 80% amplitude with resting periods of 30 s (Ultrasonic Processor mod. CV19). Protein concentration was adjusted to 2 mg/mL and aliquoted in 25 μL fractions that were incubated for 30 min room temperature with 2–5 μL stock solutions of representative TACs (ALC, DADS, and AM). The reaction mixtures were diluted in Laemmli's sample buffer, loaded in wells of 10% acrylamide-02% gelatin slab gels and these were electrophoretically analyzed using 80 V/4°C. After this, gels were incubated in a solution of triton X-100 2.5% (v/v) in water for 1 h and washed 3 times with distilled water. Bands with proteolytic activity were detected as follows: gels were incubated in acetate buffer pH 5.5 with 1 mM DTT for 16 h at 37°C under constant stirring, washed 3 times with distilled water and stained with Coomassie blue (BioRad) for 2 h at 37°C under constant stirring. Finally, gels were washed with distilled water and incubated with a solution of 5% acetic acid/40% methanol (v/v). Gel images were documented with a UVP High Performance Ultraviolet Transilluminator and software Launch DocItLS.

giardipain-1 = target: T1, giardipain-1 (Giardia intestinalis, UniProt P92132); test: Inhibition of cytolytic effect of giardipain-1 on IEC6 cell monolayers; format: cell-based, Giardia duodenalis; details: 100 min
T1 construct: the 25 kDa band that contains the processed form of the cathepsin B-like protease named as giardipain-1; endogenous in cells
Procedure: (§1) Additional assays were carried out using the MLCs of TACs (without giardipain-1) previously obtained in trophozoite cultures to monitor their toxicity. These solutions were added to monolayers of the intestinal cell line IEC6 grown in 1 cm^2-microwells and incubated for 100 min at 37°C. After incubation, supernatants were discarded and monolayers were fixed with 2% paraformaldehyde in PBS. The effects of TACs and E64 on the cytolytic effect of giardipain-1 were evaluated by light microscopy using Nomarski optics (Axioskop 40, Zeiss).

[2] = test system: G. duodenalis trophozoites; test: In vitro susceptibility, subculture in liquid medium (SCLM); format: cell-based, Giardia duodenalis (WB strain); details: for MLC (mM) ±SD / IC50: SCLM, 24 h exposure; for IC50: read-out: IC50 (mM) ±SD
[3] = test system: thiol groups exposed in G. duodenalis trophozoite proteins; test: Thiol-modifying activity (inhibition of thiol-DTNB complexes); format: biochemical, Giardia duodenalis; details: 100 μg soluble trophozoite protein, 10 min 37°C, DTNB 412 nm
Procedure: The technique reported by Lawson and Wang ([1993]) was followed. In these assays trophozoites were collected from 60 mL flasks, washed 3 times with PBS and resuspended in 500 μL PBS containing a 1:12.5 dilution of a commercial mixture of protease inhibitors (Complete^TM, Roche Diagnostics GmbH, Indianapolis, IN, USA) and lysed by sonication at 12 microns/60% amplitude (Ultrasonic apparatus Sonic UVX1130PB). Soluble proteins were recovered by centrifugation at 15,400 × g for 30 min at 4°C and protein concentration was determined by the Bradford technique. These samples were adjusted to a concentration of 1 mg/mL. Reactions were carried out in 1.5 mL microcentrifuge tubes with a mixture of 100 μg protein (100 μL) and NaH2PO4 45 mM pH 7.0 mM (800 μL) to which increasing volumes of TACs stocks or a positive control with the thiol derivatizing agent MMTS prepared at 50 mM in the same buffer, were added and total volume was adjusted to 1 mL. After incubation for 10 min at 37°C, 100 μL of 1.5 mM dithionitrobenzoic acid (DTNB, Ellman's reagent) were added to each tube and following incubation for 10 min at room temperature the absorbances (yellow solutions) were recorded at 412 nm (Smart Spec 3000^TM, Bio-Rad, Hercules, CA, USA). A calibration curve was obtained using increasing volumes (0–100 μL) of 15.5 mM cysteine instead protein extracts and the maximal blocking concentration (MBC) corresponding to a complete absence of thiol-DTNB complexes produced by TACs were calculated using the least-square method (Microsoft Excel^TM).

IEC6 cell monolayers = test: Toxicity of TACs on IEC6 cell monolayers; format: cell-based; details: 275 mM, without giardipain-1, 100 min
Procedure: as §1

[4] = test system: G. duodenalis trophozoites; test: Efficacy in experimental giardiasis; details: read day 13
Procedure: Eighty male Mongolian gerbils (M. unguiculatus) 6–10 weeks old, weighted 45–60 g and sentinel-checked gerbils free of intestinal parasites were kept in individual cages and distributed in 12 groups of 6 animals per treatment and experimental infections were performed as described elsewhere (Argüello-García and Ortega-Pierres, [1997]). In brief, animals were inoculated intragastrically with 1 × 10^6 G. duodenalis trophozoites in 500 μl sterile PBS per os using gavage under ether anesthesia. Control animals received 500 μl sterile PBS each. […] As additional control, one group of animals received MTZ (38.4 mg/kg at single or double dose). […] Treatment efficacy was evaluated by determining the presence or absence of trophozoites in intestinal contents of control and treated gerbils at day 13 post-infection. For this, gerbils were euthanized by an intraperitoneal injection of pentobarbital at a dose of 150 mg/kg to minimize stress and to reduce suffering, then a 10 cm-long section of intestine (from stomach ending, equivalent to nearly the entire small intestine) was excised after laparotomy, and it was longitudinally opened and rinsed in 20 mL PBS at 4°C for 20 min under shaking (720 rpm, Heidolph^TM rotatory shaker) to determine trophozoites number after parasite detachment from microvilli. Supernatant was collected and centrifuged at 750 × g for 10 min at 4°C, cell pellet was resuspended in 1 mL PBS and trophozoites were counted using a haemocytometer. Gerbils were scored as cured if no trophozoites were recovered from infected animals.

[5] = test system: G. duodenalis trophozoites; design: method as in Argüello-García et al., 2004; details: positive control drug; ref Argüello-García et al., 2004; cited from earlier work
[6] = test system: G. duodenalis trophozoites; test: ROS formation, H2DCFDA flow cytometry; format: cell-based, Giardia duodenalis
Procedure: (§2) The identification and quantitative determinations of trophozoites were carried out as follows: (a) apoptosis or necrosis were determined using anti-annexin V-fluorescein isothiocyanate (FITC) antibodies or PI as respective markers, (b) oxidative stress was determined by formation of reactive oxygen species (ROS) with the fluorescent ROS-complexing agent 5-(and 6)-carboxy 2′7′-dichlorodihydrofluorescein diacetate (H2DCFDA), and (c) determination of trophozoites cell cycle stages (G1, S, G2, and G2/M) after exposure to ALC or to a control drug (albendazole, ABZ) was carried out as previously described (Martínez-Espinosa et al., [2015]). In all these assays 20,000 cells per sample were recorded.

[7] = test system: G. duodenalis trophozoites; test: Cell cycle stages, PI flow cytometry; format: cell-based, Giardia duodenalis; details: 1.35 μM, 24 h
Procedure: as §2

[8] = test system: G. duodenalis trophozoites; test: Annexin V-PI flow cytometry (apoptosis/necrosis); format: cell-based, Giardia duodenalis; details: 0.48 μM, 24 h
Procedure: as §2

T1 sequence (P92132 75-300): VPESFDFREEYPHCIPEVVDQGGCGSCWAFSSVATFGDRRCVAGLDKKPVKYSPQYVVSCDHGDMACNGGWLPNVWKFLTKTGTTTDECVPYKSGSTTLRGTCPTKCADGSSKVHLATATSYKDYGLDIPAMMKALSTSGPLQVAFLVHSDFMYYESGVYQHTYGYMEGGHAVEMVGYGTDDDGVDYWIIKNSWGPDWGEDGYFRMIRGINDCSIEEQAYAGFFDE

For O=C([O-])c1cc[c]([Hg][OH])cc1.[Na+] [pHMB, sodium p-hydroxymercuribenzoate, reference compound], the “effect on proteolytic bands in zymogram” value ([1]; 10 mM) was “full inhibition of all proteolytic bands”.

With CC(C)C[C@H](NC(=O)[C@H]1O[C@@H]1C(=O)O)C(=O)NCCCCN=C(N)N [E64, reference compound] the “effect on giardipain-1 cytopathic damage in IEC6 monolayers” value (“effect on giardipain-1 cytopathic damage” for short) (giardipain-1; 20 μM pre-incubated 30 min with giardipain-1 16 μg/mL) was “efficiently inhibited the giardipain-1 induced damage” and the “effect on proteolytic bands in zymogram” value ([1]; 20 μM) was “selective inhibition on the 25 kDa band”.

With C=CCSC [AMS, allyl methyl sulfide] the “MLC (mM) ±SD” value [2] was 74.28 mM (≈ 6550 µg/mL), the “MLC (mM) ±SD” value ([2]; listed as Allyl Methyl Sulfide (AMS)) was 74.28 ± 12.3 mM (≈ 6550 µg/mL) and the IC50 [2] was 40.3 ± 3.5 mM. The “MBC (maximal blocking concentration) ± SD” value [3] was 845.9 mmol/mg protein and 845.96 ± 78.1 mmol/mg protein.

With C=CCSSCC=C [DADS, diallyl disulphide] the “toxicity to IEC6 cell monolayers” value (IEC6 cell monolayers) was “affected some cells”, the “effect on giardipain-1 cytopathic damage” value (giardipain-1; 275 mM pre-incubated 30 min with giardipain-1 16 μg/mL) was “reduced the frequency of cells displaying apoptotic damage” and the “MLC (mM) ±SD” value [2] was 2.66 mM (≈ 389 µg/mL). For the same compound, the “MLC (mM) ±SD” value ([2]; listed as Diallyl Disulfide (DADS)) was 2.66 ± 0.8 mM (≈ 389 µg/mL), the IC50 [2] was 1.4 ± 0.6 mM and the “effect on proteolytic bands in zymogram” value ([1]; 275 mM) was “could diminish similar activities except for the one at 60 kDa”. For the same compound, the “MBC (maximal blocking concentration) ± SD” value [3] was > 200 mmol/mg protein and 224.58 ± 18.8 mmol/mg protein.

For C=CCSCC=C [DAS, diallyl sulfide], the IC50 ([2]; Giardia duodenalis) was 14.5 ± 2.3 mM, the “MLC (mM) ±SD” value [2] was 23.71 mM (≈ 2710 µg/mL) and the “MLC (mM) ±SD” value ([2]; listed as Diallyl Sulfide (DAS)) was 23.71 ± 6.0 mM (≈ 2710 µg/mL). The “MBC (maximal blocking concentration) ± SD” value [3] was 351.3 mmol/mg protein and 351.34 ± 78.9 mmol/mg protein.

In the case of Cc1ncc([N+](=O)[O-])n1CCO [MTZ, metronidazole, reference compound], the “cure rate (gerbils without trophozoites)” value ([4]; 36 mg/kg at twice dose) is reported as 5 out of 6, the “cure rate (gerbils without trophozoites)” value ([4]; 36 mg/kg single dose) is reported as 3 out of 6 and the inhibition at 3 µM ([2]; Giardia duodenalis, 3.0 μM, 24 h, positive control, read-out: inhibition of trophozoite growth) is reported as 45 to 55%. For the same compound, the inhibition at 5.9 µM ([2]; Giardia duodenalis, 5.9 μM, 24 h, positive control, read-out: inhibition of trophozoite growth) was greater than 95%, the IC50 [5] was 0.003 mM and the MLC [5] was 0.0059 mM (≈ 1.01 µg/mL).

For C=CCS [AM, allyl mercaptan], the “effect on giardipain-1 cytopathic damage” value (giardipain-1; 514 mM pre-incubated 30 min with giardipain-1 16 μg/mL) was “noticeably blocked these effects”, the “MLC (mM) ±SD” value [2] was 3.06 mM (≈ 227 µg/mL) and the “MLC (mM) ±SD” value ([2]; listed as Allyl Mercaptan (AM)) was 3.06 ± 0.7 mM (≈ 227 µg/mL). The IC50 [2] was 0.83 ± 0.2 mM and the “effect on proteolytic bands in zymogram” value ([1]; bands of 75, 60 and 25 kDa, concentration not given) was “significant increase of activity”.

For CSS(C)(=O)=O [MMTS, methyl methanethiosulfonate, reference compound], the “MBC (maximal blocking concentration) ± SD” value [3] was 55.45 ± 3.2 mmol/mg protein.

For CC(C)(C)OO [TBHP, tert-butyl hydroperoxide], the “cells positive for ROS (total)” value ([6]; TBHP control, 400 μM per Figure 9, 24 h) was 17.1%.

With S-allyl-L-cysteine [SAC] the “MLC (mM) ±SD” value [2] was 69.1 mM, the “MLC (mM) ±SD” value ([2]; listed as S-Allyl Cysteine (SAC)) was 69.10 ± 13.1 mM and the IC50 [2] was 40.8 ± 6.3 mM. The “MBC (maximal blocking concentration) ± SD” value [3] was 1260.9 mmol/mg protein and 1260.99 ± 125.6 mmol/mg protein.

In the case of C=CCSSSCC=C [DATS, diallyl trisulfide], the “MLC (mM) ±SD” value [2] is reported as 1.35 ± 0.18 mM (≈ 241 µg/mL) and the “MBC (maximal blocking concentration) ± SD” value [3] is reported as > 200 mmol/mg protein and 201.61 ± 33.4 mmol/mg protein.

With CCCSc1ccc2nc(NC(=O)OC)[nH]c2c1 [ABZ, albendazole] the “cells at G2 phase” value [7] was 69.9%, the “cells at S phase” value [7] was 22.1% and the “R1 cells positive for necrosis (PI+)” value [8] was 5%. For the same compound, the “cells in apoptosis (early plus late)” value [8] was 41.0% and the “cells positive for ROS (total)” value ([6]; ABZ control, 0.48 μM per Figure 9, 24 h) was 33.85%.
